Measurements taken from patent publication US20160128980A1, “METHODS OF TREATING CKD USING PREDICTORS OF FLUID RETENTION” (AbbVie Inc., priority 2014, published 2016).
Like-named read-outs stand apart in the source and are kept apart here.

What was measured:
[1] = 1-10 mg/day; cited from earlier work
[2] = system: subjects with type 2 diabetes and albuminuria on stable doses of RAS inhibitors; test: Study M10-815, Phase 2a placebo controlled study of atrasentan; type: in vivo, human; details: for reduction in the mean UACR from baseline: placebo 11%; for subjects with mild to moderate peripheral edema: placebo 9%
Method: In a Phase 2a double-blind, randomized, placebo controlled study (referred to herein as M10-815), subjects with type 2 diabetes and albuminuria who were on stable doses of RAS inhibitors were administered atrasentan HCl at 0.25, 0.75 or 1.75 mg QD for 8 weeks.

[3] = system: patients with type 2 diabetic nephropathy; test: Two Phase 2b 12 week placebo-controlled studies of atrasentan in residual albuminuria; type: in vivo, human; details: for Linear regression coefficient, hemoglobin response: hemoglobin change after two weeks; for Linear regression coefficient, weight response: weight change after two weeks
Method: Two Phase 2b, multicenter, prospective, randomized, double-blinded, placebo-controlled, 12 week studies were conducted to evaluate the efficacy and safety of atrasentan compared to placebo in reducing residual albuminuria. Atrasentan was studied at doses of 0.75 mg QD and 1.25 mg QD. The study methodologies were the identical, but for the location. (NCT01356849 in U.S., Canada, and Taiwan; NCT10424319 in Japan). Additional clinical details can be found in Kohan, D E, et al., “Predictors of Atrasentan-Associated Fluid Retention and Change in Albuminuria in Patients with Diabetic Nephropathy,” Clin J Am Soc Nephrol, September 2015, 10:1568-1574, which is hereby incorporated by reference in its entirety. Observations in body weight changes and hemoglobin changes may be used as surrogate markers for changes in fluid retention. Demographic parameters were similar between the placebo and atrasentan 0.75 and 1.25 mg/d arms (Table 1). The following abbreviations are used within the table: BNP=B-type natriuretic peptide; DBP=diastolic blood pressure; eGFR=estimated glomerular filtration rate; HbA1c=glycated hemoglobin; RAS=renin-angiotensin system; SBP=systolic blood pressure; UACR=urinary albumin to creatinine ratio. Table 1 is reproduced in part from de Zeeuw D, et al., The endothelin antagonist atrasentan lowers residual albuminuria in patients with type 2 diabetic nephropathy. J Am Soc Nephrol 25: 1083-1093, 2014, which is hereby incorporated by reference in its entirety. Values within Table 1 are mean±standard deviation unless stated otherwise. The abbreviations used in Table 3 include BP=blood pressure; eGFR=estimated glomerular filtration rate; HbA1c=glycated hemoglobin; HOMA=homeostatic model assessment. The following covariates were included in the initial backward selection model: treatment assignment, age, gender, body weight, Hb, eGFR, albuminuria, systolic blood pressure (BP), eGFR, log transformed homeostatic metabolic assessment (HOMA) product, log-transformed B-type natriuretic peptide (BNP), thiazide and loop-diuretic use. Systolic blood pressure and atrasentan dose were not included in the final logistic regression models for body weight and hemoglobin, respectively.

[4] = system: subjects with type 1 diabetes and proteinuria not receiving RAS inhibitors; test: Study M96-499, Phase 2 cross-over study of atrasentan; type: in vivo, human
Excerpt: The most commonly experienced treatment-emergent adverse events in the atrasentan group were peripheral edema (64%), pulmonary edema (18%), rhinitis (36%) and headache (18%), whereas in the placebo group there was no peripheral edema, but there were reports of rhinitis (11%) and headache (56%).

[5] = system: congestive heart failure (CHF); details: within the first 4-8 weeks; thought to be a consequence of fluid retention; cited from earlier work
[6] = cited from earlier work
[7] = system: participants with type 2 diabetes and overt diabetic nephropathy; details: cited from earlier work; for median decrease of UACR: median follow-up 4 months, placebo 9.7%; for discontinuation of trial medications due to adverse events: placebo 1.5%; for deaths: placebo 12
[8] = system: individuals with a systolic blood pressure above 140 mmHg receiving at least three blood-pressure-lowering drugs; details: cited from earlier work
CHF = details: at higher doses; cited from earlier work
patients with acute CHF = details: intravenous, doses greater than 1 mg/hr; cited from earlier work
[9] = 0.75 mg/day vs. placebo, after two weeks
[10] = 0.75 mg/day, Recovery (30 days)
[11] = 1.25 mg/day vs. placebo, after two weeks
[12] = 1.25 mg/day, Recovery (30 days)
[13] = after 14 weeks, 50, 100 or 300 mg once daily, non-dose-dependent

Which edema incidence [1] does the source give for `COC(c1ccccc1)(c1ccccc1)[C@H](Oc1nc(C)cc(C)n1)C(=O)O` [Ambrisentan] here?
The edema incidence was 25%.

What does the source list for `CCCCN(CCCC)C(=O)CN1C[C@H](c2ccc3c(c2)OCO3)[C@@H](C(=O)O)[C@@H]1c1ccc(OC)cc1` [Atrasentan, (2R,3R,4S)-4-(1,3-benzodioxol-5-yl)-1-[2-(dibutylamino)-2-oxoethyl]-2-(4-methoxyphenyl)pyrrolidine-3-carboxylic acid]?
reduction in the mean UACR from baseline ([2]; 0.25 mg QD for 8 weeks, non-significant, P=0.291): 21%; subjects with mild to moderate peripheral edema ([2]; 0.25 mg QD): 14%; reduction in the mean UACR from baseline ([2]; 0.75 mg QD for 8 weeks, 1-sided P=0.023): 42%; subjects with mild to moderate peripheral edema ([2]; 0.75 mg QD): 18%; reduction in the mean UACR from baseline ([2]; 1.75 mg QD for 8 weeks, 1-sided P=0.073): 35%; subjects with mild to moderate peripheral edema ([2]; 1.75 mg QD): 46%; Logistic regression association with ≧1.3 g/dl fall in Hb [3, 9]: no significant association; Logistic regression odds ratio (95% CI), ≧2 kg weight gain [3, 9]: 3.0 (1.0-8.5); Linear regression coefficient, hemoglobin response ([3]; 0.75 mg/day vs. placebo): −0.7; Linear regression coefficient, weight response ([3]; 0.75 mg/day vs. placebo): 0.8; BNP, median ([3]; 0.75 mg/day, Baseline): 33.0 pg/mL; Hemoglobin, Mean (SD) ([3]; 0.75 mg/day, Baseline): 12.9 (1.5) g/dL; UACR, median ([3]; 0.75 mg/day, Baseline): 878 mg/g; Weight, Mean (SD) ([3]; 0.75 mg/day, Baseline): 87.1 (22.1) kg; Hemoglobin, Mean (SD) [3, 10]: 12.4 (1.5) g/dL; UACR, median [3, 10]: 1051 mg/g; Weight, Mean (SD) [3, 10]: 85 (23) kg; Hemoglobin, Mean (SD) ([3]; 0.75 mg/day, Week 2): 12.0 (1.5) g/dL; UACR, median ([3]; 0.75 mg/day, Week 2): 573 mg/g; Weight, Mean (SD) ([3]; 0.75 mg/day, Week 2): 88.0 (22.2) kg; UACR, median ([3]; 0.75 mg/day, Week 6): 636 mg/g; Weight, Mean (SD) ([3]; 0.75 mg/day, Week 6): 87.3 (21.8) kg; BNP, median ([3]; 0.75 mg/day, Week 12): 33.1 pg/mL; Hemoglobin, Mean (SD) ([3]; 0.75 mg/day, Week 12): 11.8 (1.6) g/dL; UACR, median ([3]; 0.75 mg/day, Week 12): 521 mg/g; Weight, Mean (SD) ([3]; 0.75 mg/day, Week 12): 87.3 (22.3) kg; Logistic regression odds ratio (95% CI), ≧1.3 g/dL hemoglobin fall [3, 11]: 5.6 (2.5-12.7); Logistic regression odds ratio (95% CI), ≧2 kg weight gain [3, 11]: 6.6 (2.3-18.6); Linear regression coefficient, hemoglobin response ([3]; 1.25 mg/day vs. placebo): −1.0; Linear regression coefficient, weight response ([3]; 1.25 mg/day vs. placebo): 1.3; BNP, median ([3]; 1.25 mg/day, Baseline): 33.5 pg/mL; Hemoglobin, Mean (SD) ([3]; 1.25 mg/day, Baseline): 12.9 (1.8) g/dL; UACR, median ([3]; 1.25 mg/day, Baseline): 826 mg/g; Weight, Mean (SD) ([3]; 1.25 mg/day, Baseline): 88.3 (18.4) kg; Hemoglobin, Mean (SD) [3, 12]: 12.5 (1.9) g/dL; UACR, median [3, 12]: 727 mg/g; Weight, Mean (SD) [3, 12]: 88 (19) kg; Hemoglobin, Mean (SD) ([3]; 1.25 mg/day, Week 2): 11.8 (1.8) g/dL; UACR, median ([3]; 1.25 mg/day, Week 2): 515 mg/g; Weight, Mean (SD) ([3]; 1.25 mg/day, Week 2): 89.4 (18.7) kg; UACR, median ([3]; 1.25 mg/day, Week 6): 461 mg/g; Weight, Mean (SD) ([3]; 1.25 mg/day, Week 6): 89.6 (19.0) kg; BNP, median ([3]; 1.25 mg/day, Week 12): 37.0 pg/mL; Hemoglobin, Mean (SD) ([3]; 1.25 mg/day, Week 12): 11.8 (1.8) g/dL; UACR, median ([3]; 1.25 mg/day, Week 12): 470 mg/g; Weight, Mean (SD) ([3]; 1.25 mg/day, Week 12): 89.0 (19.2) kg; body weight increase ([3]; after 2 weeks of treatment, placebo decreased approximately 1 kg): approximately 1 kg; hemoglobin (Hb) decrease ([3]; both atrasentan groups after 2 weeks, persisted throughout treatment): approximately 1 g/dl; Hb after treatment discontinuation ([3]; by 30 days after treatment discontinuation): normalized; change in B-natriuretic peptide (BNP) ([3]; patients who received atrasentan): no significant change; mean arterial blood pressure (BP) ([4]; 5 mg QD): reduced; pulmonary edema, treatment-emergent adverse event ([4]; 5 mg QD): 18%; peripheral edema, treatment-emergent adverse event ([4]; 5 mg QD, none in placebo): 64%; rhinitis, treatment-emergent adverse event ([4]; 5 mg QD, placebo 11%): 36%; headache, treatment-emergent adverse event ([4]; 5 mg QD, placebo 56%): 18%; reduction in urinary albumin excretion ([4]; 5 mg daily (QD)): 65%

With `COc1ccccc1Oc1c(NS(=O)(=O)c2ccc(C(C)(C)C)cc2)nc(-c2ncccn2)nc1OCCO` [Bosentan] as the molecule, how does the “worsening of congestive heart failure” value [5] read?
The value was “associated with early worsening of congestive heart failure (CHF)”.

Which edema ([6]; higher doses) does the source give for `Cc1cc2c(cc1CC(=O)c1sccc1S(=O)(=O)Nc1onc(C)c1Cl)OCO2` [Sitaxsentan] here?
The edema was “significantly causes edema”.

And the edema ([6]; lower doses (100 or 300 mg daily))?
The edema was “less tendency to cause edema”.

For `COc1ccccc1Oc1c(NS(=O)(=O)c2ccc(C)cn2)nc(-c2ccncc2)nc1OC` [avosentan], which “median decrease of UACR” value ([7]; 25 mg) is on record?
The value was 44%.

And the “discontinuation of trial medications due to adverse events” value ([7]; 25 mg)?
Its value is 19.69%.

And the deaths ([7]; 25 mg)?
Its deaths is 21.

And the “median decrease of UACR” value ([7]; 50 mg)?
Its value is 49%.

And the “discontinuation of trial medications due to adverse events” value ([7]; 50 mg)?
Its value is 18.2%.

And the deaths ([7]; 50 mg)?
The deaths was 17.

For `COc1cc(OC)nc(O[C@H](C(=O)O)C(OC)(c2ccccc2)c2ccccc2)n1` [darusentan], which “reduction in diastolic clinic seated blood pressure compared with placebo” value [8, 13] is on record?
Its value is ~5 mmHg.

And the “reduction in systolic clinic seated blood pressure compared with placebo” value [8, 13]?
The value was “about 10 mmHg”.

What about the “patients discontinuing because of fluid retention or peripheral edema” value ([8]; combined darusentan treatment groups) of the same molecule?
Its value is 2%.

What about the “patients with edema and/or fluid retention reported” value ([8]; darusentan groups combined, placebo 14%) of the same molecule?
The value was 27%.

And the “patients with cardiac-related serious adverse events” value ([8]; patients taking darusentan)?
Its value is “five”.

What about the “worsening of CHF” value (CHF) of the same molecule?
The value was “tended to worsen CHF”.

For `COc1ccccc1Oc1c(NS(=O)(=O)c2ccc(C(C)C)cn2)nc(-c2ccnc(-c3nnn[nH]3)c2)nc1OCCO` [tezosentan], which urine output (patients with acute CHF) is on record?
Its urine output is “reduced urine output”.
